From US5959145A, “Fatty acid analog enzyme substrates” (priority 1993, dated 1999)

What was measured:
yeast NMT = target: T1, yeast NMT (Saccharomyces cerevisiae, UniProt P14743); assay: kinetic characterisation of fatty acid analogs as yeast NMT substrates; type: biochemical
T1 construct: 11,000-fold purified preparation of yeast NMT; endogenous in cells; host or cells: yeast (enzyme purified from yeast, 11,000-fold)
T1 sequence (P14743 1-455): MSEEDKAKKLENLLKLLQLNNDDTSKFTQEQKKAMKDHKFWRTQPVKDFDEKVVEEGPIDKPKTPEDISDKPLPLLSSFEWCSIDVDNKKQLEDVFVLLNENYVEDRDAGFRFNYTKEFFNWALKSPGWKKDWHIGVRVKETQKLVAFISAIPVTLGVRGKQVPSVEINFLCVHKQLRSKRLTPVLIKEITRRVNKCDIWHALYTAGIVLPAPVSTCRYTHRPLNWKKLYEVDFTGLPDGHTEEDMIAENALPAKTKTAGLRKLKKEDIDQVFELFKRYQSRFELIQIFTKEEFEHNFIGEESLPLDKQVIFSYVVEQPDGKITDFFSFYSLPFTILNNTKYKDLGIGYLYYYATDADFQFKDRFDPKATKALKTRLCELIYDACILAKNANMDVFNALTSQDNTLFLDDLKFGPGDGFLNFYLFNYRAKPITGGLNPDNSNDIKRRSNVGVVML
Excerpt: Similar results were obtained using an 11,000-fold purified preparation of yeast NMT [Towler et al., Proc. Natl. Acad. Sci. USA 84, 2708-2712 (1987)].
Other illustrative examples of the oxy- and thio-substituted fatty acid analog substrate compounds of the invention were synthesized in Examples 6 to 14 and tested in Example 15 as substrates for the yeast NMT.
(§1) For these Examples, each analog synthesized is characterized by ^1 H and ^13 C NMR as well as mass spectroscopy. The analogs are then characterized kinetically as NMT substrates. Briefly, fatty acid analogs are converted to their CoA esters with Pseudomonas CoA ligase and incubated with the iodinated peptide GNAAS[^125 I]YRR and a source of NMT. […] The radiolabelled peptide is then used at concentrations which will lead to 50% enzyme saturation (i.e., at its Km) for the determination of fatty acid analog kinetic characteristics. Representative analogs with sulfur or oxygen in the backbone of the fatty acid chain serve as good substrates for NMT in vitro and will compete for incorporation of ^3 H labelled myri-state into yeast proteins in vivo. In addition, these analogs differ markedly in hydrophobicity from myri-state as measured both by C18 reverse phase HPLC elution profiles and by 2-octanol/water partition coefficients. The analog CH3 O(CH2)11 COOH, for example, partitions into water 20 fold better than myristate. It is believed that these analogs will be incorporated into mammalian acylproteins in vivo and that their incorporation into these proteins will drastically alter protein processing or targeting. It is further believed that the incorporation of fatty acid analogs of both myristate and palmitate into ester linked and phosphatidyl inositol glycan linked acylproteins will also dramatically alter their properties. Since many viral proteins and oncogenes are acylated, these compounds represent a new class of potential antiviral and antineoplastic agents.

[1] = C18 reverse phase HPLC elution of fatty acyl peptides (hydrophobicity); type: physicochemical
Procedure: The fatty acid analog acyl-peptide eluted 7 minutes earlier than the corresponding myristoyl peptide. The free peptide elutes in the void volume (3-5minutes).
This difference was evident when the HPLC elution characteristics of fatty acyl peptides were examined. The elution time of a particular acyl-peptide depends strongly on the peptide sequence as well as on the acyl chain attached to that peptide. For example, the elution times of fatty acyl derivatives of GNAAAARR are (in minutes) decanoic acid, 9; dodecanoic acid, 18; myristic acid, 24; and palmitic acid, 30. Elution times for fatty acyl derivatives of GNAAS[^125 I]YRR are 23 and 28 minutes for C12 and C14 fatty acids, respectively (FIG. 2). […] Such a change could alter the biological activity of myristoyl proteins.
as §1

[2] = tested on: yeast myristoylprotein of Mr 20 kDa; assay: competition for [3H]myristate incorporation into yeast acylprotein in vivo; type: cell-based; settings: Saccharomyces cerevisiae, 0.75 h, read-out: reduction in incorporation of [3H]myristate into yeast myristoylprotein of Mr 20 kDa
Procedure: (§2) Saccharomyces cerevisiae strain BJ405 [MATα, trpl, prbl, prcl, pep4-3; Hemmings et al., Proc. Natl. Acad. Sci. USA 78, 435-439 (1981)] (previously referred to as JR153) was grown to mid-log phase (OD660 nm =1.0-1.2) in YPD medium (1% yeast extract/2% Bactopeptone/2% Dextrose) at 30° C. in a rotary shaker water bath. Cells were pretreated with Cerulenin at 2 μg/ml for 15 minutes and then incubated for 20-45 minutes with unlabeled myristate, palmitate or fatty acid analog at 100 μM in the presence of either 5 μM [9,10-^3 H(N)]-myristate (22.4 Ci/mmol) or L-[^35 S]methionine (1106 Ci/mmol) at 30 μCi/ml of culture.
(§3) Cells were cooled on ice 5 minutes, pelleted at 10,000×g, then broken and extracted by the method of Towler et al., Proc. Natl. Acad. Sci. USA 83, 2812-2816 (1986). Total protein synthesis was assayed by trichloroacetic acid (TCA) precipitation. Proteins were separated by SDS-12% polyacrylamide gel electrophoresis, and [^3 H]fatty acid incorporation into cellular acyl-proteins was assayed by autoradiography followed by laser densitometry.

[3] = growth, toxicity and total protein synthesis in yeast cells; type: cell-based; settings: s. cerevisiae bj405, vs control cells not exposed to exogenous fatty acid, read-out: reduction in total protein synthesis ([35S]methionine into TCA precipitable protein)
Procedure: as §2, §3

CCCCCCCCCCCCCC(=O)O [myristic acid, reference compound]
Peptide Vm (yeast NMT; peptide GNAAS[125I]YRR varied, fatty acid analog at 15 μM, myristate control = 100%): 100% | Acyl CoA Vm (yeast NMT; radiolabelled peptide at its Km, analog varied, myristate control = 100%): 100% | Km (yeast NMT; radiolabelled peptide at its Km, analog varied, read-out: Acyl CoA Km): 0.6 µM | Elution Time ([1]; C18 reverse phase HPLC, acyl derivative of GNAAS[125I]YRR, Table 2): 26 min | elution time of fatty acyl derivative of GNAAAARR ([1]; reverse phase HPLC): 24 min | elution time of fatty acyl derivative of GNAAS[125I]YRR ([1]; reverse phase HPLC, FIG. 2, text): 28 min | inhibition at 100 µM [2]: 75 to 80% | inhibition at 100 µM [3]: 10 to 15%
